# Measured values: patent publication US20240025907A1, “QUINAZOLINE PAN-KRas INHIBITORS” (Mirati Therapeutics, Inc., priority 2022, published 2024)
# Experiments:
# Assay type in all cases: cell-based
# [1] = system: KRas-mediated Phosphorylation of ERK in H460 cells; experiment: Cisbio HTRF pERK assay, H460 cells; settings: single point at 100 nM; for inhibition at 0.1 µM: Homo sapiens, NCI-H460, H460 cells
# [2] = system: KRas-mediated Phosphorylation of ERK in HCT116 cells; experiment: Cisbio HTRF pERK assay, HCT116 cells; settings: single point at 100 nM; for inhibition at 0.1 µM: Homo sapiens, HCT-116, HCT116 cells
# [3] = system: KRas-mediated Phosphorylation of ERK in H358 cells; experiment: Cisbio HTRF pERK assay, H358 cells; settings: Homo sapiens, NCI-H358, H358 cells, single point at 100 nM
# [4] = system: KRas-mediated Phosphorylation of ERK in A549 cells; experiment: Cisbio HTRF pERK assay, A549 cells; settings: Homo sapiens, A549, A549 cells, single point at 100 nM
compound,measurement,setting,value
"CCc1c(F)ccc2cc(O)cc(-c3c(F)cc4c(N5C[C@@H]6C[C@H](C5)[C@H](O)C6)nc(OC[C@@]56CCCN5C[C@H](F)C6)nc4c3F)c12 (atropisomer, axis not shown; (aS)) [Example 67, (1R,5R,6R)-3-((R)-7-(8-ethyl-7-fluoro-3-hydroxynaphthalen-1-yl)-6,8-difluoro-2-(((2R,7aS)-2-fluorohexahydro-1H-pyrrolizin-7a-yl)methoxy)quinazolin-4-yl)-3-azabicyclo[3.2.1]octan-6-ol]","Inhibition (HTRF % at 100 nM) of KRas-mediated Phosphorylation of ERK, H460","[1]; H460 cells, 0.1 µM",95%
same,"Inhibition (HTRF % at 100 nM) of KRas-mediated Phosphorylation of ERK, HCT116","[2]; HCT116 cells, 0.1 µM",73%
same,inhibition at 0.1 µM,[3],94%
same,inhibition at 0.1 µM,[4],81%
"CCc1c(F)ccc2cc(O)cc(-c3ccc4c(N5CCOCC(C)(O)C5)nc(OCC5(CN(C)C)CC5)nc4c3F)c12 (stereo not shown) [Example 42, 4-(2-((1-((dimethylamino)methyl)cyclopropyl)methoxy)-7-(8-ethyl-7-fluoro-3-hydroxynaphthalen-1-yl)-8-fluoroquinazolin-4-yl)-6-methyl-1,4-oxazepan-6-ol]",inhibition at 0.1 µM,[1],59%
same,inhibition at 0.1 µM,[2],30%
same,inhibition at 0.1 µM,[3],71%
same,inhibition at 0.1 µM,[4],39%
"CCc1c(F)ccc2cc(O)cc(-c3c(F)cc4c(N5CCC[C@@](C)(O)C5)nc(OCC56CCCN5CCC6)nc4c3F)c12 [Example 48, (3R)-1-(7-(8-ethyl-7-fluoro-3-hydroxynaphthalen-1-yl)-6,8-difluoro-2-((tetrahydro-1H-pyrrolizin-7a(5H)-yl)methoxy)quinazolin-4-yl)-3-methylpiperidin-3-ol]",inhibition at 0.1 µM,[1],75%
same,inhibition at 0.1 µM,[2],50%
"CCc1c(F)ccc2cc(O)cc(-c3c(F)cc4c(N5CCCC6(CNC(=O)N6)C5)nc(OCC5(CN(C)C)CC5)nc4c3F)c12 (stereo not shown) [Example 49, 7-(2-((1-((dimethylamino)methyl)cyclopropyl)methoxy)-7-(8-ethyl-7-fluoro-3-hydroxynaphthalen-1-yl)-6,8-difluoroquinazolin-4-yl)-1,3,7-triazaspiro[4.5]decan-2-one]",inhibition at 0.1 µM,[1],23%
same,inhibition at 0.1 µM,[2],13%
"CCc1c(F)ccc2cc(O)cc(-c3c(F)cc4c(N5CCCC6(CNS(=O)(=O)N6)C5)nc(OCC5(CN(C)C)CC5)nc4c3F)c12 (stereo not shown) [Example 50, 7-(2-((1-((dimethylamino)methyl)cyclopropyl)methoxy)-7-(8-ethyl-7-fluoro-3-hydroxynaphthalen-1-yl)-6,8-difluoroquinazolin-4-yl)-2-thia-1,3,7-triazaspiro[4.5]decane 2,2-dioxide]",inhibition at 0.1 µM,[1],38%
same,inhibition at 0.1 µM,[2],-3%
same,inhibition at 0.1 µM,[3],3%
same,inhibition at 0.1 µM,[4],-17%
"CCc1c(F)ccc2cc(O)cc(-c3c(F)cc4c(N5CCOCC(C)(O)C5)nc(OCC5(CN(C)C)CC5)nc4c3F)c12 (stereo not shown) [Example 56, 4-(2-((1-((dimethylamino)methyl)cyclopropyl)methoxy)-7-(8-ethyl-7-fluoro-3-hydroxynaphthalen-1-yl)-6,8-difluoroquinazolin-4-yl)-6-methyl-1,4-oxazepan-6-ol]",inhibition at 0.1 µM,[1],86%
same,inhibition at 0.1 µM,[2],51%
same,inhibition at 0.1 µM,[3],87%
same,inhibition at 0.1 µM,[4],47%
"CCc1c(F)ccc2cc(O)cc(-c3c(F)cc4c(N5CCCn6nc(C(=O)N7CCCC7)cc6C5)nc(OC[C@@]56CCCN5C[C@H](F)C6)nc4c3F)c12 [Example 58, (5-(7-(8-ethyl-7-fluoro-3-hydroxynaphthalen-1-yl)-6,8-difluoro-2-(((2R,7aS)-2-fluorotetrahydro-1H-pyrrolizin-7a(5H)-yl)methoxy)quinazolin-4-yl)-5,6,7,8-tetrahydro-4H-pyrazolo[1,5-a][1,4]diazepin-2-yl)(pyrrolidin-1-yl)methanone]",inhibition at 0.1 µM,[1],58%
same,inhibition at 0.1 µM,[2],12%
"CCc1c(F)ccc2cc(O)cc(-c3c(F)cc4c(N5CCCn6nc(C(=O)NC(C)C)cc6C5)nc(OC[C@@]56CCCN5C[C@H](F)C6)nc4c3F)c12 [Example 59, 5-(7-(8-ethyl-7-fluoro-3-hydroxynaphthalen-1-yl)-6,8-difluoro-2-(((2R,7aS)-2-fluorotetrahydro-1H-pyrrolizin-7a(51)-yl)methoxy)quinazolin-4-yl)-N-isopropyl-5,6,7,8-tetrahydro-4H-pyrazolo[1,5-a][1,4]diazepine-2-carboxamide]",inhibition at 0.1 µM,[1],36%
same,inhibition at 0.1 µM,[2],23%
"CCc1c(F)ccc2cc(O)cc(-c3c(F)cc4c(N5CCCn6nncc6C5)nc(OC[C@@]56CCCN5C[C@H](F)C6)nc4c3F)c12 [Example 61, 4-(4-(7,8-dihydro-4H-[1,2,3]triazolo[1,5-a][1,4]diazepin-5(6H)-yl)-6,8-difluoro-2-(((2R,7aS)-2-fluorotetrahydro-1H-pyrrolizin-7a(5H)-yl)methoxy)quinazolin-7-yl)-5-ethyl-6-fluoronaphthalen-2-ol]",inhibition at 0.1 µM,[1],36%
same,inhibition at 0.1 µM,[2],9%
"CCc1c(F)ccc2cc(O)cc(-c3c(F)cc4c(N5CCCC6(CC(=O)NC6=O)C5)nc(OC[C@@]56CCCN5C[C@H](F)C6)nc4c3F)c12 (stereo partly drawn) [Example 62, 7-(7-(8-ethyl-7-fluoro-3-hydroxynaphthalen-1-yl)-6,8-difluoro-2-(((2R,7aS)-2-fluorotetrahydro-1H-pyrrolizin-7a(5H)-yl)methoxy)quinazolin-4-yl)-2,7-azaspiro[4.5]decane-1,3-dione]",inhibition at 0.1 µM,[1],98%
same,inhibition at 0.1 µM,[2],92%
same,inhibition at 0.1 µM,[3],96%
same,inhibition at 0.1 µM,[4],72%
"O=S1(=O)NCC2(CCCN(c3nc(OC[C@@]45CCCN4C[C@H](F)C5)nc4c(F)c(-c5cc(O)cc6ccc(F)c(Cl)c56)ccc34)C2)N1 (stereo partly drawn) [Example 72, 7-(7-(8-chloro-7-fluoro-3-hydroxynaphthalen-1-yl)-8-fluoro-2-(((2R,7aS)-2-fluorohexahydro-1H-pyrrolizin-7a-yl)methoxy)quinazolin-4-yl)-2-thia-1,3,7-triazaspiro[4.5]decane 2,2-dioxide]",inhibition at 0.1 µM,[1],87%
same,inhibition at 0.1 µM,[2],69%
same,inhibition at 0.1 µM,[3],98%
same,inhibition at 0.1 µM,[4],76%
"CCc1c(F)ccc2cc(O)cc(-c3c(F)cc4c(N5CCCn6nc(C(=O)N7CCOCC7)c(Cl)c6C5)nc(OC[C@@]56CCCN5C[C@H](F)C6)nc4c3F)c12 [Example 79, (3-chloro-5-(7-(8-ethyl-7-fluoro-3-hydroxynaphthalen-1-yl)-6,8-difluoro-2-(((2R,7aS)-2-fluorohexahydro-1H-pyrrolizin-7a-yl)methoxy)quinazolin-4-yl)-5,6,7,8-tetrahydro-4H-pyrazolo[1,5-a][1,4]diazepin-2-yl)(morpholino)methanone]",inhibition at 0.1 µM,[1],85%
same,inhibition at 0.1 µM,[2],64%
same,inhibition at 0.1 µM,[3],95%
same,inhibition at 0.1 µM,[4],60%
"CCc1c(F)ccc2cc(O)cc(-c3c(F)cc4c(N5CCCn6nc(C(=O)N(C)C)c(C)c6C5)nc(OC[C@@]56CCCN5C[C@H](F)C6)nc4c3F)c12 [Example 80, 5-(7-(8-ethyl-7-fluoro-3-hydroxynaphthalen-1-yl)-6,8-difluoro-2-(((2R,7aS)-2-fluorohexahydro-1H-pyrrolizin-7a-yl)methoxy)quinazolin-4-yl)-N,N,3-trimethyl-5,6,7,8-tetrahydro-4H-pyrazolo[1,5-a][1,4]diazepine-2-carboxamide]",inhibition at 0.1 µM,[1],89%
same,inhibition at 0.1 µM,[2],71%
same,inhibition at 0.1 µM,[3],95%
same,inhibition at 0.1 µM,[4],83%
"CCc1c(F)ccc2cc(O)cc(-c3c(F)cc4c(N5CCCn6nc(C(=O)NC)c(C)c6C5)nc(OC[C@@]56CCCN5C[C@H](F)C6)nc4c3F)c12 [Example 81, 5-(7-(8-ethyl-7-fluoro-3-hydroxynaphthalen-1-yl)-6,8-difluoro-2-(((2R,7aS)-2-fluorohexahydro-1H-pyrrolizin-7a-yl)methoxy)quinazolin-4-yl)-N,3-dimethyl-5,6,7,8-tetrahydro-4H-pyrazolo[1,5-a][1,4]diazepine-2-carboxamide]",inhibition at 0.1 µM,[1],26%
same,inhibition at 0.1 µM,[2],32%
same,inhibition at 0.1 µM,[3],98%
same,inhibition at 0.1 µM,[4],62%
"CCc1c(F)ccc2cc(O)cc(C3Cc4nc(OC[C@@]56CCCN5C[C@H](F)C6)nc(N5CCC[C@@](C)(O)C5)c4CO3)c12 (stereo partly drawn) [Example 85, (3R)-1-(7-(8-ethyl-7-fluoro-3-hydroxynaphthalen-1-yl)-2-(((2R,7aS)-2-fluorotetrahydro-1H-pyrrolizin-7a(5H)-yl)methoxy)-7,8-dihydro-5H-pyrano[4,3-d]pyrimidin-4-yl)-3-methylpiperidin-3-ol]",inhibition at 0.1 µM,[1],16%
same,inhibition at 0.1 µM,[2],-12%
same,inhibition at 0.1 µM,[3],-7%
same,inhibition at 0.1 µM,[4],21%
"CCc1c(F)ccc2cc(O)cc(C3Cc4nc(OC[C@@]56CCCN5C[C@H](F)C6)nc(N5C[C@@H]6C[C@H](C5)[C@H](O)C6)c4CO3)c12 (stereo partly drawn) [Example 86, (1R,5R,6R)-3-(7-(8-ethyl-7-fluoro-3-hydroxynaphthalen-1-yl)-2-(((2R,7aS)-2-fluorotetrahydro-1H-pyrrolizin-7a(5H)-yl)methoxy)-7,8-dihydro-5H-pyrano[4,3-d]pyrimidin-4-yl)-3-azabicyclo[3.2.1]octan-6-ol]",inhibition at 0.1 µM,[1],-1%
same,inhibition at 0.1 µM,[2],-12%
same,inhibition at 0.1 µM,[3],-14%
same,inhibition at 0.1 µM,[4],0%
"CCc1c(F)ccc2cc(O)cc(C3Cc4nc(OC[C@@]56CCCN5C[C@H](F)C6)nc(N5CCCC6(C5)NC(=O)NC6=O)c4CO3)c12 (stereo partly drawn) [Example 87, 7-(7-(8-ethyl-7-fluoro-3-hydroxynaphthalen-1-yl)-2-(((2R,7aS)-2-fluorotetrahydro-1H-pyrrolizin-7a(5H)-yl)methoxy)-7,8-dihydro-5H-pyrano[4,3-d]pyrimidin-4-yl)-1,3,7-triazaspiro[4.5]decane-2,4-dione]",inhibition at 0.1 µM,[1],-8%
same,inhibition at 0.1 µM,[2],-5%
same,inhibition at 0.1 µM,[3],30%
same,inhibition at 0.1 µM,[4],16%
